Carcinogen call data for nine compounds are collected here from PubChem BioAssay AID1259411 (Chemical Carcinogenesis Research Information System (CCRIS), 2018).

Calls of active or inactive are those of the source. The rule behind the calls is not given here.

For this series, the system named is rodent carcinogenicity bioassays, tumor incidence. The series can be described thus: CCRIS carcinogenicity studies. The procedure, abridged: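 Archive of carcinogenicity, mutagenicity, tumor promotion and tumor inhibition results drawn from journals, NCI reports and other sources, expert-reviewed; covers 1985-2011 and is no longer updated.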

Consider `O[C@@H]1[C@@H]2O[C@@H]2c2c(cc3ccc4cccc5c6ccccc6c2c3c45)[C@H]1O`, for which the carcinogen call is, setting by setting: (Species: MOUSE, Strain/Sex: ICR/FEMALE, Route: INTRAPERITONEAL, Dose: 0, 0.7 NMOL TOTAL DOSE INJECTED ON DAY 1 OF LIFE (STUDY DURATION: 35 WK), Tumor Site: Type of Lesion: LIVER: TUMOR, LUNG: TUMOR) “active; positive”; (Species: MOUSE, Strain/Sex: ICR/FEMALE, Route: INTRAPERITONEAL, Dose: 0, 1 NMOL (TOTAL DOSE) ADMINISTERED IN DOSES OF 1/7, 2/7, AND 4/7 ON DAYS 1, 7, AND 15 OF LIFE, RESPECTIVELY (STUDY DURA, Tumor Site: Type of Lesion: LUNG: TUMOR) “active; positive”; (Species: MOUSE, Strain/Sex: ICR/FEMALE, Route: INTRAPERITONEAL, Dose: 0, 1 NMOL TOTAL DOSE INJECTED IN DOSES OF 1/7 ON DAY 1, 2/7 ON DAY 8, AND 4/7 ON DAY 15 OF LIFE (STUDY DURATION: 35 WK), Tumor Site: Type of Lesion: LIVER: TUMOR, LUNG: TUMOR) “active; positive”; (Species: MOUSE, Strain/Sex: ICR/MALE, Route: INTRAPERITONEAL, Dose: 0, 0.7 NMOL TOTAL DOSE INJECTED ON DAY 1 OF LIFE (STUDY DURATION: 35 WK), Tumor Site: Type of Lesion: LUNG: TUMOR) “active; positive”; (Species: MOUSE, Strain/Sex: ICR/MALE, Route: INTRAPERITONEAL, Dose: 0, 1 NMOL (TOTAL DOSE) ADMINISTERED IN DOSES OF 1/7, 2/7, AND 4/7 ON DAYS 1, 7, AND 15 OF LIFE, RESPECTIVELY (STUDY DURA, Tumor Site: Type of Lesion: LUNG: TUMOR, LIVER: TUMOR) “active; positive”; (Species: MOUSE, Strain/Sex: ICR/MALE, Route: INTRAPERITONEAL, Dose: 0, 1 NMOL TOTAL DOSE INJECTED IN DOSES OF 1/7 ON DAY 1, 2/7 ON DAY 8, AND 4/7 ON DAY 15 OF LIFE (STUDY DURATION: 35 WK), Tumor Site: Type of Lesion: LIVER: TUMOR, LUNG:TUMOR) “active; positive”. The carcinogen call is, setting by setting: (Species: RAT, Strain/Sex: CD-1/FEMALE, Route: INJECTION, Dose: 0, 0.2 UMOL IN 0.1 ML DMSO INJECTED BENEATH EACH OF THE 6 NIPPLES ON THE LEFT SIDE (STUDY DURATION: 41 WK), Tumor Site: Type of Lesion: MAMMARY GLAND: TUMOR) “active; positive”; (Species: RAT, Strain/Sex: STRAIN-CD/FEMALE, Route: INJECTION, Dose: 0, 0.2 UMOL IN 0.1 ML DMSO INJECTED UNDER EACH OF THE 3 LEFT THORACIC NIPPLES FOLLOWED THE NEXT DAY BY SIMILAR TREATMENT, Tumor Site: Type of Lesion: MAMMARY GLAND: TUMOR) “active; positive”.

Consider `Nc1nnc(-c2ccc([N+](=O)[O-])o2)s1`, for which, for the setting “Species: RAT, Route: ORAL, Tumor Site: Type of Lesion: MAMMARY GLAND”, the carcinogen call is “active; positive”.

`C[C@]12CC[C@@H]3c4ccc(O)cc4CC[C@H]3[C@@H]1C[C@@H](O)[C@@H]2O`: the carcinogen call reads like this: (Species: HAMSTER, Route: SUBCUTANEOUS IMPLANT, Tumor Site: Type of Lesion: KIDNEY) “active; positive”; (Species: HUMAN, Tumor Site: Type of Lesion: UTERUS (ENDOMETRIUM)) “active; positive”; (Species: MOUSE, Route: SUBCUTANEOUS IMPLANT, Tumor Site: Type of Lesion: MAMMARY GLAND) “active; positive”.

In the case of `Oc1cc(O)c2c(c1)O[C@H](c1ccc(O)c(O)c1)[C@@H](O)C2`, the carcinogen call is, setting by setting: (Species: RAT, Strain/Sex: F344/FEMALE, Route: ORAL, Dose: 0, 2% IN DIET FOR 104 WK (STUDY DURATION: 104 WK), Tumor Site: Type of Lesion: GLANDULAR STOMACH: ADENOCARCINOMA) “active; positive”; (Species: RAT, Strain/Sex: F344/MALE, Route: ORAL, Dose: 0, 2% IN DIET FOR 104 WK (STUDY DURATION: 104 WK), Tumor Site: Type of Lesion: GLANDULAR STOMACH: ADENOCARCINOMA) “active; positive”.

`CC(COc1ccccc1)N(CCCl)Cc1ccccc1` (stereo unspecified): the carcinogen call was “active; positive” (Species: MOUSE, Strain/Sex: B6C3F1/FEMALE, Route: INTRAPERITONEAL, Dose: 0, 12.5, 25 MG/KG 3/WK FOR 50 OR 52 WK, Dose: 0, 12.5, 25 MG/KG 3/WK FOR 50 OR 52 WK, Tumor Site: Type of Lesion: PERITONEAL CAVITY: SARCOMA); “active; positive” (Species: MOUSE, Strain/Sex: B6C3F1/MALE, Route: INTRAPERITONEAL, Dose: 0, 12.5, 25 MG/KG 3/WK FOR 50 OR 52 WK, Dose: 0, 12.5, 25 MG/KG 3/WK FOR 50 OR 52 WK, Tumor Site: Type of Lesion: PERITONEAL CAVITY: SARCOMA); “active; positive” (Species: MOUSE, Strain/Sex: STRAIN-A/MALE,FEMALE, Route: INTRAPERITONEAL, Dose: 40, 100, 200 MG/KG IN TRICAPRYLIN, Dose: 40, 100, 200 MG/KG IN TRICAPRYLIN, Tumor Site: Type of Lesion: LUNG: ADENOMA); “active; positive” (Species: RAT, Strain/Sex: SPRAGUE-DAWLEY/FEMALE, Route: INTRAPERITONEAL, Dose: 0, 5, 10 MG/KG 3/WK FOR 52 WKS, Dose: 0, 5, 10 MG/KG 3/WK FOR 52 WKS, Tumor Site: Type of Lesion: PERITONEAL CAVITY: SARCOMA); “active; positive” (Species: RAT, Strain/Sex: SPRAGUE-DAWLEY/MALE, Route: INTRAPERITONEAL, Dose: 0, 5, 10 MG/KG 3/WK FOR 52 WK, Dose: 0, 5, 10 MG/KG 3/WK FOR 52 WK, Tumor Site: Type of Lesion: PERITONEAL CAVITY: SARCOMA).

`CCCCOC(=O)[C@@H](C)Oc1ccc(Oc2ccc(C#N)cc2F)cc1`: the carcinogen call (Species: Mouse, Strain/Sex: ICR (Crj:CD-1)/(Male (52/group), Route: Oral, Dose: 0, 3, 10, 100 ppm (0; 0.31; 0.99; 10.1 mg/kg/day) of 97.1% pure cyhalofop-butyl in diet for 78 wk, Dose: 0, 3, 10, 100 ppm (0; 0.31; 0.99; 10.1 mg/kg/day) of 97.1% pure cyhalofop-butyl in diet for 78 wk) is “inactive; negative” and the carcinogen call (Species: Mouse, Strain/Sex: ICR (Crj:CD-1)/Female (52/group), Route: Oral, Dose: 0, 3, 10, 100 ppm (0; 0.29; 0.99; 10.3 mg/kg/day) of 97.1% pure cyhalofop-butyl in diet for 78 wk, Dose: 0, 3, 10, 100 ppm (0; 0.29; 0.99; 10.3 mg/kg/day) of 97.1% pure cyhalofop-butyl in diet for 78 wk) was “inactive; negative”.

Take `O=CNNC=O`: the carcinogen call is, setting by setting: (Species: MOUSE, Strain/Sex: SWISS/FEMALE, Route: ORAL, Dose: 0, 2% SOLUTION IN DRINKING WATER FROM AGE 6 WK FOR LIFE FOR AN AVERAGE DAILY INTAKE OF 0, 144 MG, Dose: 0, 2% SOLUTION IN DRINKING WATER FROM AGE 6 WK FOR LIFE FOR AN AVERAGE DAILY INTAKE OF 0, 144 MG, Tumor Site: Type of Lesion: LUNG: ADENOMA OR ADENOCARCINOMA) “active; positive”; (Species: MOUSE, Strain/Sex: SWISS/MALE, Route: ORAL, Dose: 0, 2% SOLUTION IN DRINKING WATER FROM AGE 6 WK FOR LIFE FOR AN AVERAGE DAILY INTAKE OF 0, 146 MG, Dose: 0, 2% SOLUTION IN DRINKING WATER FROM AGE 6 WK FOR LIFE FOR AN AVERAGE DAILY INTAKE OF 0, 146 MG, Tumor Site: Type of Lesion: LUNG: ADENOMA OR ADENOCARCINOMA) “active; positive”.

Turning to `[Be]=[O]`, under “Species: RABBIT, Route: INTRAVENOUS, INTRAMEDULLARY, Tumor Site: Type of Lesion: BONE: OSTEOSARCOMA”, the carcinogen call was “active; positive”.

Turning to `Cc1cccc2ccccc12`, the carcinogen call runs as follows: (Species: MOUSE, Strain/Sex: B6C3F1/FEMALE, Route: ORAL, Dose: 0, 0.075, 0.15% IN DIET FOR 81 WK (STUDY DURATION: 81 WK), Dose: 0, 0.075, 0.15% IN DIET FOR 81 WK (STUDY DURATION: 81 WK)) “inactive; negative”; (Species: MOUSE, Strain/Sex: B6C3F1/MALE, Route: ORAL, Dose: 0, 0.075, 0.15% IN DIET FOR 81 WK (STUDY DURATION: 81 WK), Dose: 0, 0.075, 0.15% IN DIET FOR 81 WK (STUDY DURATION: 81 WK), Tumor Site: Type of Lesion: LUNG: ADENOMA) “active; positive”.
